From ChEMBL document CHEMBL4507316 (2021)
Active and inactive are the calls of the source.

Legend:
[1] = target: Heat shock protein beta-1 (Homo sapiens, UniProt P04792); assay: Inhibition of HSP27 (Ser82) (Western blot)
[2] = test system: Tyrosine-protein kinase ABL1 (Homo sapiens), P00519 [E255K]; assay: ABL1 E255K ProQinase selectivity panel; conditions: Compound concentration 1.0 uM
[3] = test system: Tyrosine-protein kinase ABL1 (Homo sapiens), P00519 [G250E]; assay: ABL1 G250E ProQinase selectivity panel; conditions: Compound concentration 1.0 uM
[4] = target: Activin receptor type-1B (Homo sapiens) (UniProt P36896); assay: ACV-R1B ProQinase selectivity panel; conditions: Compound concentration 1.0 uM
[5] = target: Tyrosine-protein kinase Blk (Homo sapiens) (UniProt P51451); assay: BLK ProQinase selectivity panel; conditions: Compound concentration 1.0 uM
[6] = test system: Serine/threonine-protein kinase B-raf (Homo sapiens), P15056 [V600E]; assay: B-RAF V600E ProQinase selectivity panel; conditions: Compound concentration 1.0 uM
[7] = target: Calcium/calmodulin-dependent protein kinase kinase 1 (Homo sapiens) (UniProt Q8N5S9); assay: CAMKK1 ProQinase selectivity panel; conditions: Compound concentration 1.0 uM
[8] = target: Serine/threonine-protein kinase Chk2 (Homo sapiens) (UniProt O96017); assay: CHK2 ProQinase selectivity panel; conditions: Compound concentration 1.0 uM
[9] = target: Macrophage colony-stimulating factor 1 receptor (Homo sapiens) (UniProt P07333); assay: CSF1-R ProQinase selectivity panel; conditions: Compound concentration 1.0 uM
[10] = target: Death-associated protein kinase 1 (Homo sapiens) (UniProt P53355); assay: DAPK1 ProQinase selectivity panel; conditions: Compound concentration 1.0 uM
[11] = target: Discoidin domain-containing receptor 2 (Homo sapiens) (UniProt Q16832); assay: DDR2 ProQinase selectivity panel; conditions: Compound concentration 1.0 uM
[12] = test system: Epidermal growth factor receptor (Homo sapiens), P00533 [UNDEFINED MUTATION]; assay: EGF-R d747-749/A750P ProQinase selectivity panel; conditions: Compound concentration 1.0 uM
[13] = test system: Epidermal growth factor receptor (Homo sapiens), P00533 [G719S]; assay: EGF-R G719S ProQinase selectivity panel; conditions: Compound concentration 1.0 uM
[14] = target: Ephrin type-A receptor 1 (Homo sapiens) (UniProt P21709); assay: EPHA1 ProQinase selectivity panel; conditions: Compound concentration 1.0 uM
[15] = target: Ephrin type-A receptor 8 (Homo sapiens) (UniProt P29322); assay: EPHA8 ProQinase selectivity panel; conditions: Compound concentration 1.0 uM
[16] = target: Ephrin type-B receptor 1 (Homo sapiens) (UniProt P54762); assay: EPHB1 ProQinase selectivity panel; conditions: Compound concentration 1.0 uM
[17] = target: Ephrin type-B receptor 3 (Homo sapiens) (UniProt P54753); assay: EPHB3 ProQinase selectivity panel; conditions: Compound concentration 1.0 uM
[18] = test system: Receptor-type tyrosine-protein kinase FLT3 (Homo sapiens), P36888 [D835Y]; assay: FLT3 D835Y ProQinase selectivity panel; conditions: Compound concentration 1.0 uM
[19] = test system: Receptor-type tyrosine-protein kinase FLT3 (Homo sapiens), P36888 [UNDEFINED MUTATION]; assay: FLT3 ITD ProQinase selectivity panel; conditions: Compound concentration 1.0 uM
[20] = target: G protein-coupled receptor kinase 3 (Homo sapiens) (UniProt P35626); assay: GRK3 ProQinase selectivity panel; conditions: Compound concentration 1.0 uM
[21] = target: Serine/threonine-protein kinase haspin (Homo sapiens) (UniProt Q8TF76); assay: GSG2 ProQinase selectivity panel; conditions: Compound concentration 1.0 uM
[22] = target: Glycogen synthase kinase-3 beta (Homo sapiens) (UniProt P49841); assay: GSK3-beta ProQinase selectivity panel; conditions: Compound concentration 1.0 uM
[23] = target: Homeodomain-interacting protein kinase 3 (Homo sapiens) (UniProt Q9H422); assay: HIPK3 ProQinase selectivity panel; conditions: Compound concentration 1.0 uM
[24] = target: Insulin receptor (Homo sapiens) (UniProt P06213); assay: INS-R ProQinase selectivity panel; conditions: Compound concentration 1.0 uM
[25] = target: Interleukin-1 receptor-associated kinase 4 (Homo sapiens) (UniProt Q9NWZ3); assay: IRAK4 ProQinase selectivity panel; conditions: Compound concentration 1.0 uM
[26] = target: Tyrosine-protein kinase JAK3 (Homo sapiens) (UniProt P52333); assay: JAK3 ProQinase selectivity panel; conditions: Compound concentration 1.0 uM
[27] = target: Mast/stem cell growth factor receptor Kit (Homo sapiens) (UniProt P10721); assay: KIT wt ProQinase selectivity panel; conditions: Compound concentration 1.0 uM
[28] = target: Mitogen-activated protein kinase kinase kinase kinase 2 (Homo sapiens) (UniProt Q12851); assay: MAP4K2 ProQinase selectivity panel; conditions: Compound concentration 1.0 uM
[29] = target: Serine/threonine-protein kinase MARK2 (Homo sapiens) (UniProt Q7KZI7); assay: MARK2 ProQinase selectivity panel; conditions: Compound concentration 1.0 uM
[30] = test system: Hepatocyte growth factor receptor (Homo sapiens), P08581 [D1228H]; assay: MET D1228H ProQinase selectivity panel; conditions: Compound concentration 1.0 uM
[31] = test system: Hepatocyte growth factor receptor (Homo sapiens), P08581 [Y1230C]; assay: MET Y1230C ProQinase selectivity panel; conditions: Compound concentration 1.0 uM
[32] = target: Serine/threonine-protein kinase 4 (Homo sapiens) (UniProt Q13043); assay: MST1 ProQinase selectivity panel; conditions: Compound concentration 1.0 uM
[33] = target: Serine/threonine-protein kinase PAK 1 (Homo sapiens) (UniProt Q13153); assay: PAK1 ProQinase selectivity panel; conditions: Compound concentration 1.0 uM
[34] = target: Serine/threonine-protein kinase PAK 3 (Homo sapiens) (UniProt O75914); assay: PAK3 ProQinase selectivity panel; conditions: Compound concentration 1.0 uM
[35] = target: Serine/threonine-protein kinase PAK 6 (Homo sapiens) (UniProt Q9NQU5); assay: PAK6 ProQinase selectivity panel; conditions: Compound concentration 1.0 uM
[36] = target: PAS domain-containing serine/threonine-protein kinase (Homo sapiens) (UniProt Q96RG2); assay: PASK ProQinase selectivity panel; conditions: Compound concentration 1.0 uM
[37] = target: Serine/threonine-protein kinase pim-3 (Homo sapiens) (UniProt Q86V86); assay: PIM3 ProQinase selectivity panel; conditions: Compound concentration 1.0 uM
[38] = target: Protein kinase C iota type (Homo sapiens) (UniProt P41743); assay: PKC-iota ProQinase selectivity panel; conditions: Compound concentration 1.0 uM
[39] = target: Serine/threonine-protein kinase N2 (Homo sapiens) (UniProt Q16513); assay: PRK2 ProQinase selectivity panel; conditions: Compound concentration 1.0 uM
[40] = target: cAMP-dependent protein kinase catalytic subunit PRKX (Homo sapiens) (UniProt P51817); assay: PRKX ProQinase selectivity panel; conditions: Compound concentration 1.0 uM
[41] = target: Serine/threonine-protein kinase PLK2 (Homo sapiens) (UniProt Q9NYY3); assay: SNK ProQinase selectivity panel; conditions: Compound concentration 1.0 uM
[42] = target: Serine/threonine-protein kinase 17A (Homo sapiens) (UniProt Q9UEE5); assay: STK17A ProQinase selectivity panel; conditions: Compound concentration 1.0 uM
[43] = target: Vascular endothelial growth factor receptor 2 (Homo sapiens) (UniProt P35968); assay: VEGF-R2 ProQinase selectivity panel; conditions: Compound concentration 1.0 uM
[44] = target: 5-hydroxytryptamine receptor 2B (Homo sapiens, UniProt P41595); conditions: Compound concentration 10.0 uM
[45] = target: 5-hydroxytryptamine receptor 2C (Homo sapiens) (UniProt P28335); conditions: Compound concentration 10.0 uM
[46] = target: 5-hydroxytryptamine receptor 3A (Homo sapiens) (UniProt P46098); conditions: Compound concentration 10.0 uM
[47] = target: 5-hydroxytryptamine receptor 6 (Homo sapiens) (UniProt P50406); conditions: Compound concentration 10.0 uM
[48] = target: 5-hydroxytryptamine receptor 7 (Homo sapiens) (UniProt P34969); conditions: Compound concentration 10.0 uM
[49] = target: D(1A) dopamine receptor (Homo sapiens) (UniProt P21728); conditions: Compound concentration 10.0 uM

Sequence of 5-hydroxytryptamine receptor 6 (Homo sapiens) (P50406 whole entry): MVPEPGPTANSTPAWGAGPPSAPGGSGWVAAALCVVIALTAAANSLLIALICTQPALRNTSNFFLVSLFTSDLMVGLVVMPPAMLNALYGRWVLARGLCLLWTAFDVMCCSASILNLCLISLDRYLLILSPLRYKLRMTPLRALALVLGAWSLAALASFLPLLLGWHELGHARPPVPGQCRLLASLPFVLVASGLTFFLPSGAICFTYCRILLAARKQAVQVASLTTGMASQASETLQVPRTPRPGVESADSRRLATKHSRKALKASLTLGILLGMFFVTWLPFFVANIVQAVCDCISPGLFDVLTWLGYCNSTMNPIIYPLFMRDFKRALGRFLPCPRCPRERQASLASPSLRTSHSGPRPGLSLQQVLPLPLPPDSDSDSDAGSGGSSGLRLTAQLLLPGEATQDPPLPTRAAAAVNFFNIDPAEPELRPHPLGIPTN
Sequence of Ephrin type-B receptor 1 (Homo sapiens) (P54762 whole entry): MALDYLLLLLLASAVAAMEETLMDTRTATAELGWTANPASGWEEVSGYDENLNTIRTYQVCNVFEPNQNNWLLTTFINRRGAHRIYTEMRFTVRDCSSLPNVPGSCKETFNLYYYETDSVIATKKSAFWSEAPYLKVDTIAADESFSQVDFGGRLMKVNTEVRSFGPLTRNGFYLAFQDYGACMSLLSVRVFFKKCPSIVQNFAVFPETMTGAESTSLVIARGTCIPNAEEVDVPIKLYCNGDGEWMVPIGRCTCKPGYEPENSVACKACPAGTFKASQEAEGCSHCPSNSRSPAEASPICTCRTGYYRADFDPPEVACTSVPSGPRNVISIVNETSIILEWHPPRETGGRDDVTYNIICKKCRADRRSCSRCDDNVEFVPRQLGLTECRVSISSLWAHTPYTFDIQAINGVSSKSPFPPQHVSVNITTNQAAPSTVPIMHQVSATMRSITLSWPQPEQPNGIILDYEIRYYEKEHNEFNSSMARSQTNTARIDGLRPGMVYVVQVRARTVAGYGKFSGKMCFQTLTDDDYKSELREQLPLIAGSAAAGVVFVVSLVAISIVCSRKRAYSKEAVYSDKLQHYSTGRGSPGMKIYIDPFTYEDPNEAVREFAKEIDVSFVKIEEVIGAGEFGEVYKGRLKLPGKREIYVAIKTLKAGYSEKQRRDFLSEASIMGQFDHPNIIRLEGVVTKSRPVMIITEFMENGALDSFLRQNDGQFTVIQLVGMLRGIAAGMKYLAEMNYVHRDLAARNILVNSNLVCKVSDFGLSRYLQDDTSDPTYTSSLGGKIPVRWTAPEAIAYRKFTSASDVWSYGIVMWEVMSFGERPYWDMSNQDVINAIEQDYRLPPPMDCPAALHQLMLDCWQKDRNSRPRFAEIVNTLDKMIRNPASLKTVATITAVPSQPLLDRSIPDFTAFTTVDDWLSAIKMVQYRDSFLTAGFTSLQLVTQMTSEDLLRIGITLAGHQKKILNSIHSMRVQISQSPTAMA
Sequence of Insulin receptor (Homo sapiens) (P06213 28-758 limits assumed): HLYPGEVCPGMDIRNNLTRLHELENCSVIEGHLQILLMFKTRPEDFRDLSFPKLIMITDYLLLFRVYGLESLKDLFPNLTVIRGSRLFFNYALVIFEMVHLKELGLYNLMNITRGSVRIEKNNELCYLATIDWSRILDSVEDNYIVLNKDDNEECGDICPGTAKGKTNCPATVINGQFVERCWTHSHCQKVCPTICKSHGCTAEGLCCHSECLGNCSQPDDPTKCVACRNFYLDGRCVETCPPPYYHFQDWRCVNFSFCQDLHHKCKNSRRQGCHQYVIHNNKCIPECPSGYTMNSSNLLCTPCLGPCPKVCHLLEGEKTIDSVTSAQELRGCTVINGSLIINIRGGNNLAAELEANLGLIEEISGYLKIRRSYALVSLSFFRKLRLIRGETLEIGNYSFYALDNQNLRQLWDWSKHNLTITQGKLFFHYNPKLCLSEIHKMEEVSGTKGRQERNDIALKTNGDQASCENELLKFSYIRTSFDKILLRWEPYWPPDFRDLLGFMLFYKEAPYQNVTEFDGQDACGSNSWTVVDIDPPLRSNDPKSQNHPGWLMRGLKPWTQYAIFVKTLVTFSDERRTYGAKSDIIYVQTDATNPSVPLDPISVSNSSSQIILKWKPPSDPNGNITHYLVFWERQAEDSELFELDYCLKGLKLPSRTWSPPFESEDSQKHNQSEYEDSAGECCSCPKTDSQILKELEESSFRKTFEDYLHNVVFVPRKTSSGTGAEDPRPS
Sequence of Insulin receptor (Homo sapiens) (P06213 763-1382 limits assumed): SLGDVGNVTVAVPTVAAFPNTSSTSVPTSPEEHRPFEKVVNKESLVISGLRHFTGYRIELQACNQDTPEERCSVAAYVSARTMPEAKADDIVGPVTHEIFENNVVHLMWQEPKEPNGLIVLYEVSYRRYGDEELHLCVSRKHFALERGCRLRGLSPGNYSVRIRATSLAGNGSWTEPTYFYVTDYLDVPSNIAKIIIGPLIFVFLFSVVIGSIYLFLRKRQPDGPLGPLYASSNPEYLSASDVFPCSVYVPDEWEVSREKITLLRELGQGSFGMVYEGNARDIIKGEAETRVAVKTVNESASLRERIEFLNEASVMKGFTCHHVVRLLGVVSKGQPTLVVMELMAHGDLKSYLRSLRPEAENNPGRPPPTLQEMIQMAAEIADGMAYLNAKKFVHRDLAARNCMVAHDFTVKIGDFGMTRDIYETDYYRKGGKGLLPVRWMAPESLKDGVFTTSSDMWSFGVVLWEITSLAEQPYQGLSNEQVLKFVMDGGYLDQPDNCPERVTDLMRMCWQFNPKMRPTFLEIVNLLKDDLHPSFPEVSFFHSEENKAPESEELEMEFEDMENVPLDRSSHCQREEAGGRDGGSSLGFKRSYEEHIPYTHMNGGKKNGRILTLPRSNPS
Sequence of Hepatocyte growth factor receptor (Homo sapiens), P08581 [Y1230C] (P08581 whole entry Y1230C): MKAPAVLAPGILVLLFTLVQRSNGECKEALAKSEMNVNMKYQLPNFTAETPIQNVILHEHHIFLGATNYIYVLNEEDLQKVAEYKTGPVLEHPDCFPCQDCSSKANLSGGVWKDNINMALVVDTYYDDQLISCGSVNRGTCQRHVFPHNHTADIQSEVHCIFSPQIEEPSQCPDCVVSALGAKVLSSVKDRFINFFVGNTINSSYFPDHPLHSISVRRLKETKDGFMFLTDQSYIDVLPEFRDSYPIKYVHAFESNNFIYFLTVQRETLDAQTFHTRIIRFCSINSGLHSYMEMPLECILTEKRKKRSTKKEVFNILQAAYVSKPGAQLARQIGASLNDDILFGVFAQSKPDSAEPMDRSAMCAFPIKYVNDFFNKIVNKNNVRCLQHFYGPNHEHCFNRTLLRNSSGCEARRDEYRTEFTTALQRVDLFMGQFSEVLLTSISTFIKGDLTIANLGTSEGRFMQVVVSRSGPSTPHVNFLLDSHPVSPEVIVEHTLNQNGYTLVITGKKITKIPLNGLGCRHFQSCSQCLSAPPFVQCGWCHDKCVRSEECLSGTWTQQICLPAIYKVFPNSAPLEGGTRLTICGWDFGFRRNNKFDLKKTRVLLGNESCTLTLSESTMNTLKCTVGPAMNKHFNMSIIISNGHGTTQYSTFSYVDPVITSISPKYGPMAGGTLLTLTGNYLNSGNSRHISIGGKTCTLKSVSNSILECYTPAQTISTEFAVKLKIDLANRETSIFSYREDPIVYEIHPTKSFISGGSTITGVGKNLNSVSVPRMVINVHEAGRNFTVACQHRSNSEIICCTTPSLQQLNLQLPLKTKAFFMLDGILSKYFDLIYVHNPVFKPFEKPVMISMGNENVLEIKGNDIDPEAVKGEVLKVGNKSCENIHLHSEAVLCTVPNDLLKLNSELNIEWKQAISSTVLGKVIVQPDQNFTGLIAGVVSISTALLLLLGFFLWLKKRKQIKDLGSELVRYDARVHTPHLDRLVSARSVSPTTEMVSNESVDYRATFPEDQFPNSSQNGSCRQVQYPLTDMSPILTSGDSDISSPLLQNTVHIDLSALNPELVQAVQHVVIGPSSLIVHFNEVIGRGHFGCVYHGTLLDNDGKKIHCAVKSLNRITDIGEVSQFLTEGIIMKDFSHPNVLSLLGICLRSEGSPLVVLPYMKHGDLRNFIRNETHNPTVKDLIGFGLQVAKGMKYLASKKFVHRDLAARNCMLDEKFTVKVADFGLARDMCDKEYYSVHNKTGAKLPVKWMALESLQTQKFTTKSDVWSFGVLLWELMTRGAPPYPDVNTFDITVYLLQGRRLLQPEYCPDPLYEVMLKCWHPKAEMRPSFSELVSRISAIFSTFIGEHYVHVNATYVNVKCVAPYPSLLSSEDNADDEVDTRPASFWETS
Sequence of 5-hydroxytryptamine receptor 7 (Homo sapiens) (P34969 whole entry): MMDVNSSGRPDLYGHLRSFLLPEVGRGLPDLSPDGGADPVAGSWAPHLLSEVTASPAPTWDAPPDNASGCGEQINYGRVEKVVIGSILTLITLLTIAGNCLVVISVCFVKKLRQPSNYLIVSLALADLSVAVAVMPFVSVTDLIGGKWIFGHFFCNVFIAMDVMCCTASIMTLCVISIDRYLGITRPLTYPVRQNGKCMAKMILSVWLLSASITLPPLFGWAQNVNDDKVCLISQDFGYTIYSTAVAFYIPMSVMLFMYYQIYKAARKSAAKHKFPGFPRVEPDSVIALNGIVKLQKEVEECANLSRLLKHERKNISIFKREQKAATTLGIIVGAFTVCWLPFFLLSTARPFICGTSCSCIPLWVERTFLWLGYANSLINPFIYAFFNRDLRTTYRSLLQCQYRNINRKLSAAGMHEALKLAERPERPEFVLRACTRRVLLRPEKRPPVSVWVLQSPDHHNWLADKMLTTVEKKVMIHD

O=C1c2ccc(Nc3ccc(F)cc3F)cc2CCc2ccc(OC[C@H](O)CO)cc21 [Skepinone-L]
active: IC50 [1] 25 nM | inhibition [44] 83.1%
inactive: % Residual activity with Skepinone-L [2] 105% | % Residual activity with Skepinone-L [3] 97% | % Residual activity with Skepinone-L [4] 77% | % Residual activity with Skepinone-L [5] 107% | % Residual activity with Skepinone-L [6] 135% | % Residual activity with Skepinone-L [7] 83% | % Residual activity with Skepinone-L [8] 89% | % Residual activity with Skepinone-L [9] 106% | % Residual activity with Skepinone-L [10] 86% | % Residual activity with Skepinone-L [11] 102% | % Residual activity with Skepinone-L [12] 96% | % Residual activity with Skepinone-L [13] 96% | % Residual activity with Skepinone-L [14] 115% | % Residual activity with Skepinone-L [15] 95% | % Residual activity with Skepinone-L [16] 116% | % Residual activity with Skepinone-L [17] 108% | % Residual activity with Skepinone-L [18] 101% | % Residual activity with Skepinone-L [19] 101% | % Residual activity with Skepinone-L [20] 95% | % Residual activity with Skepinone-L [21] 82% | % Residual activity with Skepinone-L [22] 97% | % Residual activity with Skepinone-L [23] 91% | % Residual activity with Skepinone-L [24] 101% | % Residual activity with Skepinone-L [25] 104% | % Residual activity with Skepinone-L [26] 103% | % Residual activity with Skepinone-L [27] 111% | % Residual activity with Skepinone-L [28] 89% | % Residual activity with Skepinone-L [29] 105% | % Residual activity with Skepinone-L [30] 97% | % Residual activity with Skepinone-L [31] 97% | % Residual activity with Skepinone-L [32] 71% | % Residual activity with Skepinone-L [33] 100% | % Residual activity with Skepinone-L [34] 107% | % Residual activity with Skepinone-L [35] 101% | % Residual activity with Skepinone-L [36] 88% | % Residual activity with Skepinone-L [37] 78% | % Residual activity with Skepinone-L [38] 91% | % Residual activity with Skepinone-L [39] 95% | % Residual activity with Skepinone-L [40] 79% | % Residual activity with Skepinone-L [41] 103% | % Residual activity with Skepinone-L [42] 77% | % Residual activity with Skepinone-L [43] 91% | inhibition [45] 24% | inhibition [46] 6.53% | inhibition [47] 14.8% | inhibition [48] -9.25% | inhibition [49] 5.83%
